Source: patent US8076324B2, “Di(hetero)arylcyclohexane derivatives, their preparation, their use and pharmaceutical compositions comprising them” (Sanofi-Aventis, priority 2007, dated 2011)

target: T1, myocardial ATP-sensitive potassium channel (SUR2A/Kir6.2) (UniProt Q61743+Q63563); assay: Rubidium efflux test on HEK293 cells transfected with SUR2A and Kir6.2 (myocardial action); type: cell-based, SUR2A from the rat, Kir6.2 from the mouse; details: HEK293 cells transfected with SUR2A/Kir6.2; KATP channels opened by rilmakalim; 25 min incubation; read-out: IC50 values for the inhibition of the rubidium efflux
T1 construct: expressed in transfected cells
Method: 1) Action on the SUR2A/Kir6.2 potassium channel (myocardial action) The action of the compounds on the ion transport through the myocardial ATP-sensitive potassium channel (SUR2A/Kir6.2) was determined in the rubidium efflux test system described below on human embryonic kidney cells HEK293 which were transfected with the components SUR2A and Kir6.2 (cf. Weyermann et al., Naunyn-Schmiedeberg's Arch. Pharmacol. 369, 374-381 (2004)).
The HEK293 cells were cultured at 37° C. in a humidified air atmosphere with 7% carbon dioxide in minimal essential medium with Earle's salts and L-glutamine (MEM, Gibco), which was supplemented with 10% fetal calf serum and zeozin (0.36 mg/ml) and geneticin (0.75 mg/ml). The transfection of the cells and the preparation of a cell line with stable expression of Kir6.2 from the mouse (accession number AF037313) and SUR2A from the rat (accession number D83598/L40624) were carried out as described in Giblin et al., J. Biol. Chem. 274, 22652-22659 (1999).
60 000 transfected cells per well were inoculated into a poly-D-lysine-coated 96-well microtiter plate (Greiner #650 201). After incubation for 24 h at 37° C., the cells were washed three times with buffer 1 (150 mM NaCl, 2 mM CaCl2, 0.8 mM NaH2PO4, 1 mM MgCl2, 5 mM glucose, 25 mM HEPES, pH=7.4). Subsequently, the buffer solution was replaced by 100 μl of rubidium loading buffer (buffer 1 with 5.4 mM RbCl) and the cells were incubated for a further 3 h at 37° C. The rubidium loading buffer was then removed by washing the cells three times with 200 μl each of potassium chloride wash buffer (buffer 1 with 5.4 mM KCl). After addition of the test substances (70 μl; dissolved in potassium chloride wash buffer with addition of DMSO), the KATP channels of the cells were opened by addition of 70 μl of rilmakalim (2 μM) (cf. Krause et al., Pflügers Arch. 429, 625-635 (1995)) and the cells were incubated at 37° C. for 25 min. Subsequently, the cell supernatants were transferred to a new 96-well microtiter plate and the cells were lyzed by addition of 200 μl of lysis buffer (buffer 1 with 1% Triton X-100). The concentrations of Rb^+ in the cell supernatant and in the cell lyzate were measured by means of atomic absorption spectroscopy using an Al 1200 apparatus (Aurora Instruments Ltd.).
The Rb^+ efflux rate was calculated as [Rb^+SN]/[Rb^+total], wherein [Rb^+SN] is the amount of Rb^+ in the cell supernatant and [Rb^+total] is the sum of the amounts of Rb^+ in the cell supernatant and cell lyzate. IC50 values for the inhibition of the rubidium efflux were calculated with the aid of the Hill equation.

T1 sequence (Q63563 whole entry): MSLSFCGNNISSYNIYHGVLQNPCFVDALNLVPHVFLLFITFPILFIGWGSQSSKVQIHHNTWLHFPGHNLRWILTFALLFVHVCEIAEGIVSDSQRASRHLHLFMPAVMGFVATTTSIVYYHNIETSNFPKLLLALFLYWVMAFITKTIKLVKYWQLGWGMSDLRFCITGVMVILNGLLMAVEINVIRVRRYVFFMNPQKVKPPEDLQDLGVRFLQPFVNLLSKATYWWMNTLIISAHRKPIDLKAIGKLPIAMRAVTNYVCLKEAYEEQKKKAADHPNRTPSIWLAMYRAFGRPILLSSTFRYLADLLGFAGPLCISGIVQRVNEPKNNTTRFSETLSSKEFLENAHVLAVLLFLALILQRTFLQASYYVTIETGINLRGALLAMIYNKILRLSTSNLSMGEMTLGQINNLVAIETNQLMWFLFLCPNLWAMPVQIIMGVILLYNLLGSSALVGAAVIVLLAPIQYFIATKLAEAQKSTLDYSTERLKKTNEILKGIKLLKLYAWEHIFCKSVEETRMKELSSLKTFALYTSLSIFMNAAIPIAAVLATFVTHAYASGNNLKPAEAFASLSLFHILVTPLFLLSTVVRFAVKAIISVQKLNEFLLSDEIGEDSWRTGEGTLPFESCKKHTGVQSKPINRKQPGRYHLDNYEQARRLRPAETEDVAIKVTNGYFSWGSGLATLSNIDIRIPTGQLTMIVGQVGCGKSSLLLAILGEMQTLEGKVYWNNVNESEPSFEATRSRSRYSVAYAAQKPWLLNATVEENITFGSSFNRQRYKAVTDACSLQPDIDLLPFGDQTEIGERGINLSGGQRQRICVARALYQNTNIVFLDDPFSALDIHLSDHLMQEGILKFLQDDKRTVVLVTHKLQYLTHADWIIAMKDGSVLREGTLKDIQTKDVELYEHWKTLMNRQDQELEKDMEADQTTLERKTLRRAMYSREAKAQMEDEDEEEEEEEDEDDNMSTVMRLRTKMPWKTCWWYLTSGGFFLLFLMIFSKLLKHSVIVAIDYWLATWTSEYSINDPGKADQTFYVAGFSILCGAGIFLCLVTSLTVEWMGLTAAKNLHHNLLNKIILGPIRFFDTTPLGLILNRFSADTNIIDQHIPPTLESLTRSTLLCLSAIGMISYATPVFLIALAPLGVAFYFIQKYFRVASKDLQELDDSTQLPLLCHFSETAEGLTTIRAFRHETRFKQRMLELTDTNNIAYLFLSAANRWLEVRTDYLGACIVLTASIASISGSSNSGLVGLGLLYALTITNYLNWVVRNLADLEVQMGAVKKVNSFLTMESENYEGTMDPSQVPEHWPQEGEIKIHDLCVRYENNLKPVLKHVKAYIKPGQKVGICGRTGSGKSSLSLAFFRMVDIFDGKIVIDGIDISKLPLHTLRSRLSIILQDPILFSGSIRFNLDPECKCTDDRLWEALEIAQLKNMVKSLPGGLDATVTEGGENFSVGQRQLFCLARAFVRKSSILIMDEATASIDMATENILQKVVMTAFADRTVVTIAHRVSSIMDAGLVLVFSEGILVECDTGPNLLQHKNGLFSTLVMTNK
T1 sequence (Q61743 whole entry): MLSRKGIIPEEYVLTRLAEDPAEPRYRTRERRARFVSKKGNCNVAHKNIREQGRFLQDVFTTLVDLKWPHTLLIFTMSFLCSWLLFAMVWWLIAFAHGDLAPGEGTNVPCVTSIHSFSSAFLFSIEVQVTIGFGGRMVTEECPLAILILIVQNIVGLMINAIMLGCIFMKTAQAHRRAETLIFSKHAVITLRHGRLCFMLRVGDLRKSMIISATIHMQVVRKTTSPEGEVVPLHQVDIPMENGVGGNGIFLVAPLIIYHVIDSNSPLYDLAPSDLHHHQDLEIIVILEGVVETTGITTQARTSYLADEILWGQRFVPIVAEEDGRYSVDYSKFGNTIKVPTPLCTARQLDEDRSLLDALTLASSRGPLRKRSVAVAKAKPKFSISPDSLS

IC50, < 1000 nM:
Cc1nc([C@]2(OCCC(C)C)CC[C@](C(=O)O)(c3ccc(F)cc3)CC2)n(CC2CC2)c1C [Example 372]
O=C(O)[C@]1(c2ccccc2)CC[C@](OCC2CC2)(c2nc(C3CC3)n(CC3CC3)n2)CC1 [Example 296-2, Trans-4-(5-Cyclopropyl-1-cyclopropylmethyl-1H-[1,2,4]triazol-3-yl)-4-cyclopropylmethoxy-1-phenylcyclohexanecarboxylic Acid]
CCCOC1(c2ccc(F)cc2SC)CCC(C(=O)O)(c2ccc(F)cc2)CC1 (centres unmarked) [Example 242]
Cc1nc([C@]2(OCCC(C)(C)C)CC[C@](C(=O)O)(c3ccccc3)CC2)n(C)c1Cl [Example 392]
COC1(c2ccc(Cl)cn2)CCC(C(=O)O)(c2ccccc2)CC1 (centres unmarked) [Example 137]
O=C(O)C1(c2ccccc2)CCC(O)(c2ccc(F)cc2)CC1 (centres unmarked) [Example 93]
Cc1nc([C@]2(OCC3CC3)CC[C@](C(=O)O)(c3ccccc3)CC2)n(C)c1Cl [Example 391]
Cc1c(Br)nc([C@]2(Oc3ccccc3)CC[C@@](C(=O)O)(c3ccc(F)cc3)CC2)n1CC1CC1 [Example 404]
Cc1cn(CC2CC2)c([C@]2(OCC3CC3)CC[C@](C(=O)O)(c3ccc(F)cc3)CC2)n1 [Example 368]
Cc1nc([C@]2(OCC3CC3)CC[C@](C(=O)O)(c3ccc(S(C)(=O)=O)cc3)CC2)n(CC2CC2)c1Cl [Example 408]
CS(=O)(=O)c1cccc2nc([C@]3(OCC4CC4)CC[C@](C(=O)O)(c4ccccc4)CC3)n(CC3CC3)c12 [Example 455]
O=C(O)C1(c2ccccc2)CCC(O)(c2cccc(C(F)(F)F)c2)CC1 (centres unmarked) [Example 102]
O=C(O)C1(c2ccc(F)cc2)CCC(OCC2CC2)(c2ccc(F)cc2)CC1 (centres unmarked) [Example 249]
O=C(O)C1(c2ccccc2)CCC(OCCC2CC2)(c2ccc(F)cc2)CC1 (centres unmarked) [Example 306, 4-(2-Cyclopropylethoxy)-4-(4-fluorophenyl)-1-phenylcyclohexanecarboxylic Acid]
CS(=O)(=O)c1ccc(-c2nc([C@]3(Oc4ccccc4)CC[C@@](C(=O)O)(c4ccccc4)CC3)n(CC3CC3)n2)cc1 [Example 467]
COC1(c2ccc(F)cc2)CCC(C(=O)O)(c2ccccc2F)CC1 (centres unmarked) [Example 235]
CSc1ccc(C2(O)CCC(C(=O)O)(c3ccccc3)CC2)cc1 (centres unmarked) [Example 161, 4-Hydroxy-4-(4-methylsulfanylphenyl)-1-phenylcyclohexanecarboxylic Acid]
O=C(O)C1(c2ccccc2)CCC(O)(c2ccc(F)cc2F)CC1 (centres unmarked) [Example 95]
COC1(c2ccc(F)cc2)CCC(C(=O)O)(c2ccccc2)CC1 (centres unmarked) [Example 92, 4-(4-Fluorophenyl)-4-methoxy-1-phenylcyclohexanecarboxylic Acid]
CSc1cc(F)ccc1C1(OCC2CC2)CCC(C(=O)O)(c2ccc(F)cc2)CC1 (centres unmarked) [Example 243]
O=C(O)C1(c2ccccc2)CCC(OCC2CC2)(c2ccc(F)cc2)CC1 (centres unmarked) [Example 150]
CCCOC1(c2ccccc2S(C)(=O)=O)CCC(C(=O)O)(c2ccccc2)CC1 (centres unmarked) [Example 174]
CSc1ccc(F)cc1C1(OCC2CC2)CCC(C(=O)O)(c2ccc(F)cc2)CC1 (centres unmarked) [Example 247]
O=C(O)[C@]1(c2ccccc2)CC[C@@](OCC2(c3ccccc3)COC2)(c2nccn2CC2CC2)CC1 [Example 497, 4-(1-Cyclopropylmethyl-1H-imidazol-2-yl)-1-phenyl-4-(3-phenyloxetan-3-ylmethoxy)cyclohexanecarboxylic Acid]
Cc1c(F)cc(S(C)(=O)=O)cc1[C@]1(OCC2CC2)CC[C@](C(=O)O)(c2ccccc2)CC1 [Example 480, Cis-4-Cyclopropylmethoxy-4-(3-fluoro-2-methyl-5-methanesulfonylphenyl)-1-phenylcyclohexanecarboxylic Acid]
O=C(O)[C@]1(c2ccccc2)CC[C@](OCC2CC2)(c2cc(-c3ccccc3)ccn2)CC1 [Example 486, Trans-4-Cyclopropylmethoxy-1-phenyl-4-(4-phenylpyridin-2-yl)cyclohexanecarboxylic Acid]
COC1(c2ccc(C(F)(F)F)cc2)CCC(C(=O)O)(c2ccccc2)CC1 (centres unmarked) [Example 124]
COC1(c2ccc(C)c(F)c2)CCC(C(=O)O)(c2ccccc2)CC1 (centres unmarked) [Example 123]
O=C(O)[C@]1(c2ccc(F)cc2)CC[C@@](OCC2CC2)(c2nc3ccccc3n2CC2CC2)CC1 [Example 366]
Cc1nc([C@]2(OCC3(C)COC3)CC[C@](C(=O)O)(c3ccccc3)CC2)n(CC2CC2)c1Cl [Example 385]
CC(C)CCO[C@]1(c2nccn2CC2CC2)CC[C@@](C(=O)O)(c2ccc(F)cc2)CC1 [Example 370]
Cc1c(Cl)nc([C@]2(OCC3CC3)CC[C@](C(=O)O)(c3ccccc3)CC2)n1CC1CC1 [Example 383]
Cc1nc([C@]2(OCC3CC3)CC[C@](C(=O)O)(c3ccccc3)CC2)n(CC2CC2)c1C [Example 377]
O=C(O)[C@]1(c2ccccc2)CC[C@@](OCC2CC2)(c2nc(-c3ccccc3)cs2)CC1 [Example 333-1, Cis-4-Cyclopropylmethoxy-1-phenyl-4-(4-phenylthiazol-2-yl)cyclohexanecarboxylic Acid]
COC1(c2cccc(F)c2F)CCC(C(=O)O)(c2ccccc2)CC1 (centres unmarked) [Example 120]
O=C(O)[C@]1(c2ccccc2)CC[C@@](OCC2CC2)(c2nc3cc(F)ccc3n2CC2CC2)CC1 [Example 452]
O=C(O)[C@]1(c2ccccc2)CC[C@](OCC2CC2)(c2nc(C(F)(F)F)cn2CC2CC2)CC1 [Example 381]
O=C(O)[C@]1(c2ccccc2)CC[C@](OCC2CC2)(c2nccn2CC2CC2)CC1 [Example 493, Trans-Cyclopropylmethoxy-4-(1-cyclopropylmethyl-1H-imidazol-2-yl)-1-phenylcyclohexanecarboxylic Acid]
O=C(O)[C@]1(c2ccccc2)CC[C@@](OCC2CC2)(c2nc(C(F)(F)F)cn2CC2CC2)CC1 [Example 380]
COC1(c2ccccc2S(C)(=O)=O)CCC(C(=O)O)(c2ccccc2)CC1 (centres unmarked) [Example 172]
CC(C)c1nc([C@]2(OCC3CC3)CC[C@](C(=O)O)(c3ccccc3)CC2)n(CC2CC2)c1Cl [Example 394]
Cc1nc([C@]2(OCC3CC3)CC[C@](C(=O)O)(c3cccc(OC(F)(F)F)c3)CC2)n(CC2CC2)c1Cl [Example 409]
Cc1c(F)cc([C@]2(OCC3CC3)CC[C@](C(=O)O)(c3ccccc3)CC2)cc1S(C)(=O)=O [Example 482, Cis-4-Cyclopropylmethoxy-4-(3-fluoro-5-methanesulfonyl-4-methylphenyl)-1-phenylcyclohexanecarboxylic Acid]
O=C(O)[C@]1(c2ccccc2)CC[C@](OCC2CC2)(c2ncc(C(F)(F)F)n2CC2CC2)CC1 [Example 379]
O=C(O)[C@]1(c2ccccc2)CC[C@](Oc2ccccc2)(c2nc(-c3ccccc3)nn2CC2CC2)CC1 [Example 466]
O=C(O)[C@]1(c2ccccc2)CC[C@@](OCC2CC2)(c2nc(Cl)c(Cl)n2CC2CC2)CC1 [Example 387]
Cc1c(F)cc([C@]2(OCC3CC3)CC[C@](C(=O)O)(c3ccc(F)cc3)CC2)cc1S(=O)(=O)C(C)(C)C [Example 304-2, Cis-4-Cyclopropylmethoxy-4-[3-fluoro-4-methyl-5-(2-methylpropane-2-sulfonyl)phenyl]-1-(4-fluorophenyl)cyclohexanecarboxylic Acid]
Cc1nc([C@]2(OCCC(C)C)CC[C@](C(=O)O)(c3ccccc3)CC2)n(CC2CC2)c1C [Example 376]
O=C(O)C1(c2ccccc2)CCC(O)(c2ccc(C(F)(F)F)cc2)CC1 (centres unmarked) [Example 101]
O=C(O)C1(c2ccccc2)CCC(O)(c2c(F)cc(F)cc2F)CC1 (centres unmarked) [Example 98]
